Reference: patent US11051515B2, “3-acyl-benzamides and their use as herbicides” (Bayer Aktiengesellschaft, priority 2017, dated 2021)

Legend:
AVEFA = assay: Pre-emergence action against AVEFA; assay type: in vivo, Avena fatua; details: dosage 320 g/ha, scored visually after 3 weeks vs untreated controls
How it was run: (§1)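 Seeds sown in sandy loam in wood-fiber pots and covered with soil. Greenhouse growth; visual damage scored after 3 weeks versus untreated controls (100% = dead, 0% = like control).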

PHBPU [1] = assay: Pre-emergence action against PHBPU; assay type: in vivo, Pharbitis purpurea; details: Dosage 320 g/ha, pre-emergence
How it was run: as §1

ECHCG [2] = assay: Post-emergence action against ECHCG; assay type: in vivo, Echinochloa crus-galli; details: post-emergence, dosage 80 g/ha, visual assessment about 3 weeks after treatment vs untreated controls
How it was run: (§2)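 Post-emergence foliar spray on greenhouse plants at the one-leaf stage, using wettable-powder or emulsion-concentrate formulations in water (600 to […], plus 0.2% wetting agent). Damage scored by eye roughly 3 weeks later against untreated plants: 0% = like control, 100% = dead.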

ECHCG [3] = assay: Pre-emergence action against ECHCG; assay type: in vivo, Echinochloa crus-galli; details: pre-emergence, dosage 320 g/ha, scored visually after 3 weeks vs untreated controls
How it was run: as §1

STEME [4] = assay: Post-emergence action against STEME; assay type: in vivo, Stellaria media; details: post-emergence, dosage 80 g/ha
How it was run: as §2

ABUTH [5] = assay: Post-emergence action against ABUTH; assay type: in vivo, Abutilon theophrasti; details: post-emergence, dosage 80 g/ha, visual assessment about 3 weeks after treatment vs untreated controls
How it was run: as §2

VIOTR [6] = assay: Pre-emergence action against VIOTR; assay type: in vivo, Viola tricolor; details: Dosage 320 g/ha, pre-emergence
How it was run: as §1

VIOTR [7] = assay: Post-emergence action against VIOTR; assay type: in vivo, Viola tricolor; details: post-emergence, dosage 80 g/ha
How it was run: as §2

MATIN [8] = assay: Pre-emergence action against MATIN; assay type: in vivo, Matricaria inodora; details: Dosage 320 g/ha, pre-emergence
How it was run: as §1

VERPE [9] = assay: Post-emergence action against VERPE; assay type: in vivo, Veronica persica; details: dosage 80 g/ha
How it was run: as §2

POLCO = assay: Post-emergence action against POLCO; assay type: in vivo, Polygonum convolvulus; details: post-emergence, dosage 80 g/ha
Experimental: Seeds of monocotyledonous and dicotyledonous weed and crop plants are laid out in sandy loam soil in wood-fiber pots, covered with soil and cultivated in a greenhouse under good growth conditions. 2 to 3 weeks after sowing, the test plants are treated at the one-leaf stage. The compounds of the invention, formulated in the form of wettable powders (WP) or as emulsion concentrates (EC), are then sprayed onto the green parts of the plants in the form of an aqueous suspension or emulsion at a water application rate equating to […], with addition of 0.2% wetting agent. After the test plants have been left to stand in the greenhouse under optimal growth conditions for about 3 weeks, the action of the preparations is assessed visually in comparison to untreated controls (herbicidal action in percent (%): 100% activity=the plants have died, 0% activity=like control plants). […] At the same time, inventive compounds leave Gramineae crops such as barley, wheat, rye, millet/Sorghum, corn or rice virtually undamaged when applied post-emergence, even at high active ingredient dosages. In addition, some substances are also harmless to dicotyledonous crops such as soya, cotton, oilseed rape, sugar beet or potatoes. Some of the compounds according to the invention have high selectivity and are therefore suitable for controlling unwanted vegetation in agricultural crops by the post-emergence method. The data of Tables B18 to B34 below illustrate, in an exemplary manner, the […] herbicidal action of the compounds according to the invention, the herbicidal activity being stated in percent.

AMARE [10] = assay: Pre-emergence action against AMARE; assay type: in vivo, Amaranthus retroflexus; details: pre-emergence, dosage 320 g/ha, scored visually after 3 weeks vs untreated controls
How it was run: as §1

SETVI [11] = assay: Post-emergence action against SETVI; assay type: in vivo, Setaria viridis; details: post-emergence, dosage 80 g/ha, visual assessment about 3 weeks after treatment vs untreated controls
How it was run: as §2

ABUTH [12] = assay: Pre-emergence action against ABUTH; assay type: in vivo, Abutilon theophrasti; details: pre-emergence, dosage 320 g/ha, scored visually after 3 weeks vs untreated controls
How it was run: as §1

AMARE [13] = assay: Post-emergence action against AMARE; assay type: in vivo, Amaranthus retroflexus; details: post-emergence, dosage 80 g/ha, visual assessment about 3 weeks after treatment vs untreated controls
How it was run: as §2

CYPES = assay: Pre-emergence action against CYPES; assay type: in vivo, Cyperus esculentus; details: pre-emergence, dosage 320 g/ha, scored visually after 3 weeks vs untreated controls
How it was run: as §1

MATIN [14] = assay: Post-emergence action against MATIN; assay type: in vivo, Matricaria inodora; details: post-emergence, dosage 80 g/ha, visual assessment about 3 weeks after treatment vs untreated controls
How it was run: as §2

VERPE [15] = assay: Pre-emergence action against VERPE; assay type: in vivo, Veronica persica; details: Dosage 320 g/ha, pre-emergence
How it was run: as §1

STEME [16] = assay: Pre-emergence action against STEME; assay type: in vivo, Stellaria media; details: Dosage 320 g/ha, pre-emergence
How it was run: as §1

SETVI [17] = assay: Pre-emergence action against SETVI; assay type: in vivo, Setaria viridis; details: pre-emergence, dosage 320 g/ha, scored visually after 3 weeks vs untreated controls
How it was run: as §1

ALOMY = assay: Pre-emergence action against ALOMY; assay type: in vivo, Alopecurus myosuroides; details: dosage 320 g/ha; pre-emergence; scored visually after 3 weeks vs untreated controls; 100% = plants have died, 0% = like control plants
How it was run: as §1

PHBPU [18] = assay: Post-emergence action against PHBPU; assay type: in vivo, Pharbitis purpurea; details: post-emergence, dosage 80 g/ha
How it was run: as §2

CCCn1nnnc1NC(=O)c1ccc(C(F)(F)F)c(C(C)=O)c1Cl [3-137]
Pre-emergence action against AVEFA (herbicidal activity) (AVEFA): 80% | Pre-emergence action against PHBPU (PHBPU [1]): 100% | Post-emergence action against ECHCG (herbicidal action in percent) (ECHCG [2]): 90% | Pre-emergence action against ECHCG (herbicidal activity) (ECHCG [3]): 100% | Post-emergence action against STEME (STEME [4]): 100 | Post-emergence action against ABUTH (herbicidal action in percent) (ABUTH [5]): 90% | Pre-emergence action against VIOTR (VIOTR [6]): 100% | Post-emergence action against VIOTR (VIOTR [7]): 100 | Pre-emergence action against MATIN (MATIN [8]): 100% | Post-emergence action against VERPE (VERPE [9]): 90 | Post-emergence action against POLCO (POLCO): 90 | Pre-emergence action against AMARE (herbicidal activity) (AMARE [10]): 100% | Post-emergence action against SETVI (herbicidal action in percent) (SETVI [11]): 100% | Pre-emergence action against ABUTH (herbicidal activity) (ABUTH [12]): 100% | Post-emergence action against AMARE (herbicidal action in percent) (AMARE [13]): 100% | Pre-emergence action against CYPES (herbicidal activity) (CYPES): 90% | Post-emergence action against MATIN (herbicidal action in percent) (MATIN [14]): 100% | Pre-emergence action against VERPE (VERPE [15]): 90% | Pre-emergence action against STEME (STEME [16]): 100% | SETVI (Table B8, pre-emergence herbicidal activity) (SETVI [17]): 90% | Pre-emergence action against ALOMY (herbicidal activity in percent) (ALOMY): 90% | Post-emergence action against PHBPU (PHBPU [18]): 100
